Reference: patent US8735414B2 (priority 2009, dated 2014)

Tests used:
[1] = test system: bicistronic HCV replicon (replicon RNA, GenBank Accession No. AJ242654); experiment: HCV Replicon Assay; type: cell-based; conditions: Hepatitis C virus, 72 h, read-out: Replicon IC50

Row | SMILES | melting point | IC50 [1]
1 | C[C@H](NS(=O)(=O)c1ccc(-c2c(C#N)c3cc(Cl)ccc3n2-c2ccccn2)nc1)C1CC1 [compound 490, 6-[5-chloro-3-cyano-1-(pyridin-2-yl)-1H-indol-2-yl]-N-[(1S)-1-cyclopropylethyl]pyridine-3-sulfonamide] | 136 to 139 °C | 2000 to 5000 nM
2 | C[C@@H](NS(=O)(=O)c1ccc(-c2c(C#N)c3cc(Cl)ccc3n2-c2ccccn2)nc1)C(F)(F)F [compound 491, 6-[5-chloro-3-cyano-1-(pyridin-2-yl)-1H-indol-2-yl]-N-[(2R)-1,1,1-trifluoropropan-2-yl]pyridine-3-sulfonamide] | 150 to 154 °C | 500 to 2000 nM
3 | Cc1cc2c(C#N)c(-c3ccc(S(=O)(=O)N[C@@H](C)C(F)(F)F)cn3)n(C3CCC3)c2cc1F [compound 492, 6-(3-cyano-1-cyclobutyl-6-fluoro-5-methyl-1H-indol-2-yl)-N-[(2S)-1,1,1-trifluoropropan-2-yl]pyridine-3-sulfonamide] | 185 to 190 °C | < 500 nM
4 | Cc1cc2c(C#N)c(-c3ccc(S(=O)(=O)NC(CF)CF)cn3)n(C3CCC3)c2cc1F [compound 493, 6-(3-cyano-1-cyclobutyl-6-fluoro-5-methyl-1H-indol-2-yl)-N-(1,3-difluoropropan-2-yl)pyridine-3-sulfonamide] | 209 to 213 °C | < 500 nM
5 | C[C@H](NS(=O)(=O)c1cnc(-c2c(C#N)c3ccc(F)cc3n2C2CCC2)nc1)C(F)(F)F [compound 494, 2-(3-cyano-1-cyclobutyl-6-fluoro-1H-indol-2-yl)-N-[(2S)-1,1,1-trifluoropropan-2-yl]pyrimidine-5-sulfonamide] | 223 to 225 °C | 2000 to 5000 nM
6 | C[C@H](NS(=O)(=O)c1cnc(-c2c(C#N)c3ccc(F)cc3n2C2CCCC2)nc1)C(F)(F)F [compound 495, 2-(3-cyano-1-cyclopentyl-6-fluoro-1H-indol-2-yl)-N-[(2S)-1,1,1-trifluoropropan-2-yl]pyrimidine-5-sulfonamide] | 217 to 219 °C | 2000 to 5000 nM
7 | C[C@H](NS(=O)(=O)c1cnc(-c2c(C#N)c3ccc(F)cc3n2C2CCC2)nc1)C1CC1 [compound 496, 2-(3-cyano-1-cyclobutyl-6-fluoro-1H-indol-2-yl)-N-[(1S)-1-cyclopropylethyl]pyrimidine-5-sulfonamide] | 207 to 208 °C | 500 to 2000 nM
8 | C[C@H](NS(=O)(=O)c1cnc(-c2c(C#N)c3ccc(F)cc3n2CC2CC2)nc1)C1CC1 [compound 498, 2-[3-cyano-1-(cyclopropylmethyl)-6-fluoro-1H-indol-2-yl]-N-[(1S)-1-cyclopropylethyl]pyrimidine-5-sulfonamide] | 198 to 199 °C | 500 to 2000 nM
9 | C[C@H](NS(=O)(=O)c1cnc(-c2c(C#N)c3ccc(F)cc3n2C2CCCCC2)nc1)C1CC1 [compound 499, 2-(3-cyano-1-cyclohexyl-6-fluoro-1H-indol-2-yl)-N-[(1S)-1-cyclopropylethyl]pyrimidine-5-sulfonamide] | 169 to 170 °C | < 500 nM
10 | COc1ccc2c(c1)c(C#N)c(-c1ccc(S(=O)(=O)N[C@H](C)C(F)(F)F)cn1)n2C1CCC1 [compound 500, 6-(3-cyano-1-cyclobutyl-5-methoxy-1H-indol-2-yl)-N-[(2R)-1,1,1-trifluoropropan-2-yl]pyridine-3-sulfonamide] | 181 to 186 °C | < 500 nM
11 | N#Cc1c(-c2ccc(S(=O)(=O)NC(CF)CF)cn2)n(-c2ccccn2)c2cc(C3CC3)ccc12 [compound 501, 6-[3-cyano-6-cyclopropyl-1-(pyridin-2-yl)-1H-indol-2-yl]-N-(1,3-difluoropropan-2-yl)pyridine-3-sulfonamide] | 210 to 213 °C | < 500 nM
12 | C[C@H](NS(=O)(=O)c1ccc(-c2c(C#N)c3ccc(C4CC4)cc3n2-c2ccccn2)nc1)C(F)(F)F [compound 502, 6-[3-cyano-6-cyclopropyl-1-(pyridin-2-yl)-1H-indol-2-yl]-N-[(2S)-1,1,1-trifluoropropan-2-yl]pyridine-3-sulfonamide] | 185 to 189 °C | < 500 nM
13 | Cc1ccc2c(c1)c(C#N)c(-c1ccc(S(=O)(=O)N[C@@H](C)C(F)(F)F)cn1)n2-c1ccccn1 [compound 503, 6-[3-cyano-5-methyl-1-(pyridin-2-yl)-1H-indol-2-yl]-N-[(2S)-1,1,1-trifluoropropan-2-yl]pyridine-3-sulfonamide] | 165 to 167 °C | 500 to 2000 nM
14 | Cc1ccc2c(c1)c(C#N)c(-c1ccc(S(=O)(=O)NC(CF)CF)cn1)n2-c1ccccn1 [compound 504, 6-[3-cyano-5-methyl-1-(pyridin-2-yl)-1H-indol-2-yl]-N-(1,3-difluoropropan-2-yl)pyridine-3-sulfonamide] | 177 to 179 °C | < 500 nM
15 | Cc1cc2c(C#N)c(-c3ccc(S(=O)(=O)NC(CF)CF)cn3)n(C3CCC3)c2cc1Cl [compound 505, 6-(6-chloro-3-cyano-1-cyclobutyl-5-methyl-1H-indol-2-yl)-N-(1,3-difluoropropan-2-yl)pyridine-3-sulfonamide] | 195 to 196 °C | < 500 nM
16 | Cc1cc2c(C#N)c(-c3ccc(S(=O)(=O)N[C@@H](C)C(F)(F)F)cn3)n(C3CCC3)c2cc1Cl [compound 506, 6-(6-chloro-3-cyano-1-cyclobutyl-5-methyl-1H-indol-2-yl)-N-[(2S)-1,1,1-trifluoropropan-2-yl]pyridine-3-sulfonamide] | 198 to 198.5 °C | < 500 nM
17 | Cc1cc2c(C#N)c(-c3ncc(S(=O)(=O)NC(C)C)cn3)n(C3CCC3)c2cc1Cl [compound 507, 2-(6-chloro-3-cyano-1-cyclobutyl-5-methyl-1H-indol-2-yl)-N-(propan-2-yl)pyrimidine-5-sulfonamide] | 217 to 218 °C | 500 to 2000 nM
18 | Cc1c(F)cc2c(C#N)c(-c3ccc(S(=O)(=O)N[C@@H](C)C(F)(F)F)cn3)n(C3CCCC3)c2c1F [compound 508, 6-(3-cyano-1-cyclopentyl-5,7-difluoro-6-methyl-1H-indol-2-yl)-N-[(2S)-1,1,1-trifluoropropan-2-yl]pyridine-3-sulfonamide] | 215 to 219 °C | < 500 nM
19 | Cc1c(F)cc2c(C#N)c(-c3ccc(S(=O)(=O)NC(CF)CF)cn3)n(C3CCCC3)c2c1F [compound 509, 6-(3-cyano-1-cyclopentyl-5,7-difluoro-6-methyl-1H-indol-2-yl)-N-(1,3-difluoropropan-2-yl)pyridine-3-sulfonamide] | 199 to 203 °C | < 500 nM
20 | Cc1cc2c(C#N)c(-c3ccc(S(=O)(=O)N[C@H](C)C(F)(F)F)cn3)n(C3CCC3)c2cc1Cl [compound 510, 6-(6-chloro-3-cyano-1-cyclobutyl-5-methyl-1H-indol-2-yl)-N-[(2R)-1,1,1-trifluoropropan-2-yl]pyridine-3-sulfonamide] | 200 to 200.5 °C | 500 to 2000 nM
21 | Cc1ccc2cc(-c3ccc(S(=O)(=O)NC(CF)CF)cn3)n(C3CCC3)c2c1 [compound 511, 6-(1-cyclobutyl-6-methyl-1H-indol-2-yl)-N-(1,3-difluoropropan-2-yl)pyridine-3-sulfonamide] | 137 to 139 °C | < 500 nM
22 | C[C@H](NS(=O)(=O)c1ccc(-c2c(C#N)c3ccc(OC(F)F)cc3n2-c2ncccn2)nc1)C(F)(F)F [compound 512, 6-[3-cyano-6-(difluoromethoxy)-1-(pyrimidin-2-yl)-1H-indol-2-yl]-N-[(2S)-1,1,1-trifluoropropan-2-yl]pyridine-3-sulfonamide] | 186 to 189 °C | < 500 nM
23 | Cc1ccc2c(C#N)c(-c3ccc(S(=O)(=O)NC(CF)CF)cn3)n(C3CCCCC3)c2c1 [compound 513, 6-(3-cyano-1-cyclohexyl-6-methyl-1H-indol-2-yl)-N-(1,3-difluoropropan-2-yl)pyridine-3-sulfonamide] | 195 to 203 °C | < 500 nM
24 | C[C@@H](NS(=O)(=O)c1ccc(-c2c(C#N)c3ccc(Cl)cc3n2C2CCCCC2)nc1)C(F)(F)F [compound 514, 6-(6-chloro-3-cyano-1-cyclohexyl-1H-indol-2-yl)-N-[(2R)-1,1,1-trifluoropropan-2-yl]pyridine-3-sulfonamide] | 218 to 223 °C | < 500 nM
25 | C[C@H](NS(=O)(=O)c1ccc(-c2c(C#N)c3ccc(Cl)cc3n2C2CCCCC2)nc1)C(F)(F)F [compound 515, 6-(6-chloro-3-cyano-1-cyclohexyl-1H-indol-2-yl)-N-[(2S)-1,1,1-trifluoropropan-2-yl]pyridine-3-sulfonamide] | 217 to 224 °C | < 500 nM
26 | C[C@H](NS(=O)(=O)c1cnc(-c2c(C#N)c3ccc(Cl)cc3n2C2CCCCC2)nc1)C(F)(F)F [compound 516, 2-(6-chloro-3-cyano-1-cyclohexyl-1H-indol-2-yl)-N-[(2S)-1,1,1-trifluoropropan-2-yl]pyrimidine-5-sulfonamide] | 215 to 220 °C | < 500 nM
27 | N#Cc1c(-c2ncc(S(=O)(=O)NC(CF)CF)cn2)n(C2CCCCC2)c2cc(Cl)ccc12 [compound 517, 2-(6-chloro-3-cyano-1-cyclohexyl-1H-indol-2-yl)-N-(1,3-difluoropropan-2-yl)pyrimidine-5-sulfonamide] | 228 to 234 °C | < 500 nM
28 | COc1ccc2c(C#N)c(-c3ccc(S(=O)(=O)N[C@H](C)C(F)(F)F)cn3)n(C3CCCCC3)c2c1 [compound 518, 6-(3-cyano-1-cyclohexyl-6-methoxy-1H-indol-2-yl)-N-[(2R)-1,1,1-trifluoropropan-2-yl]-pyridine-3-sulfonamide] | 198 to 204 °C | < 500 nM
29 | COc1ccc2c(C#N)c(-c3ccc(S(=O)(=O)N[C@@H](C)C(F)(F)F)cn3)n(C3CCCCC3)c2c1 [compound 519, 6-(3-cyano-1-cyclohexyl-6-methoxy-1H-indol-2-yl)-N-[(2S)-1,1,1-trifluoropropan-2-yl]pyridine-3-sulfonamide] | 197 to 204 °C | < 500 nM
